Test [1] concerns the target T1, recombinant human VEGF-R2 (Homo sapiens, UniProt P35968).
T1 construct: purchased Cell signaling technology #7787
As to the kind of experiment: VEGF-R2 Kinase Assay (ELISA). The class given is biochemical. To be noted: 10 μM ATP, 25° C. 30 minutes, read-out: IC50 (VEGFR/bio). The protocol:
This assay is used to measure the in vitro kinase activity of recombinant human VEGF-R2 in an ELISA assay.
(§1) c. Stop Buffer: 50 mM EDTA, pH 8.0.
(§2) d. DELFIA® Europium-labeled Anti-mouse IgG (PerkinElmer Life Sciences #AD0124).
(§3) f. DELFIA® Streptavidin coated, 96-well, yellow plate (PerkinElmer Life Sciences #AAAND-0005).
(§4) k. HTScan™ Tyrosine Kinase Buffer (4×)
(§5) The following protocol was used:
1. Dilute test compound with DMSO to the desired final assay concentration.
2. Dilute 6 μM substrate peptide (Tyr87) 1:1 with dH2O, add 15 μl to every assay.
3. Immediately transfer VEGF-R2 enzyme from −80° C. to ice. Allow enzyme to thaw on ice.
4. Take 2.2 μg VEGF-R2 enzyme to the enzyme tube.
(§6) 6. Transfer 0.75 ml of DTT/Kinase buffer to each enzyme tube to make 4× reaction cocktail. Add 7.5 μl 4× reaction cocktail to every assay.
7. Add 2 μl ATP (10 mM) to 498 μl dH2O, take 7.5 μl for every assay. Final Assay Conditions for a 30 μl Reaction
Incubate reaction tube at 25° C. for 30 minutes. 9. Add 30 μl/assay stop buffer (50 mM EDTA, pH 8.0) to stop the reaction. 10. Transfer 25 μl of each reaction and 75 μl dH2O/well to a 96-well streptavidin coated plate and incubate, with shaking at room temperature for 60 minutes. 11. Wash three times with 200 μl/well PBS-T buffer. Pat plate on paper towel to remove excess liquid. 12. […] Add 100 μl diluted primary antibody to each well. 13. Incubate, with shaking at room temperature for 60 minutes. 14. Wash as described above in step 11. 15. Dilute Europium labeled anti-mouse IgG 1:500 in PBS-T buffer with 1% BSA. Add 100 μl diluted antibody to each well. 16. Incubate, with shaking at room temperature for 30 minutes. 17. Wash five times with 200 μl/well PBS-T buffer. Pat plate on paper towel to remove excess liquid. 18. Add 100 μl/well DELFIA® Enhancement Solution. 19. Incubate, with shaking at room temperature for 5 minutes. 20. Detect 615 nm fluorescence emission with appropriate Time-Resolved Plate Reader.
(§7) X=the fluorescence value of the well contained test compound
(§8) The IC50 value can be derived from the IRs of compounds at different concentration gradients.

The next test has as its target T2, HER-2/ErbB2 kinase (Homo sapiens, UniProt P04626).
T2 construct: purchased Invitrogen corporation #PV3366
In words: HER-2 Kinase Assay (ELISA). The class given is biochemical. To be noted: 20 μM ATP, 25° C. 60 minutes. How it is done:
An enzyme linked immunosorbent assays (ELISA) was conducted to measure the kinase activity of HER-2 in vitro.
a. Wash Buffer (PBS-T Buffer): 1×PBS (137 mM NaCl; 2.7 mM KCl, 4.3 mM Na2HPO4, 1.4 mM KH2PO4, adjust the pH to 7.2) and 0.05% Tween-20.
b. 1% Bovine Serum Albumin (BSA, Calbiochem #136593) in PBS-T.
as §1, §2
e. DELFIA® Enhancement Solution (PerkinElmer Life Sciences #1244-105).
as §3
g. HER-2/ErbB2 kinase (Invitrogen corporation #PV3366).
h. 10 mM ATP solution (Cell signaling technology #9804).
i. FLT3 (Tyr589) Biotinylated Peptide (Cell signaling technology #1305).
j. Phospho-Tyrosine Mouse mAb (P-Tyr-100) (Cell signaling technology #9411).
as §4
(Cell signaling technology #9805).
l. 1.25 M DTT (1000×) (Cell signaling technology).
as §5
1. Dilute test compound with DMSO to the desired final assay concentration. Add 1 μl test compound for every assay, to the negative control.
2. Dilute 6 μM substrate peptide (Tyr589) 1:1 with dH2O, add 15 μl to every assay.
3. Immediately transfer HER-2 enzyme from −80° C. to ice. Allow enzyme to thaw on ice.
4. Take 4.5 μg HER-2 enzyme to the enzyme tube.
5. Add 10 μl of DTT (1.25 M) to 2.5 ml of 4×HTScan™ Tyrosine Kinase Buffer (240 mM HEPES pH 7.5, 20 mM MgCl2, 20 mM MnCl2, 12 μM Na3VO4) to make DTT/Kinase buffer.
as §6
7. Add 4 μl ATP (10 mM) to 496 μl dH2O, take 7.5 μl for every assay. Final Assay Conditions for a 30 μl Reaction
Incubate reaction tube at 25° C. for 60 minutes. 9. Add 30 μl/assay stop buffer (50 mM EDTA, pH 8.0) to stop the reaction. 10. Transfer 25 μl of each reaction and 75 μl dH2O/well to a 96-well streptavidin coated plate and incubate, with shaking at room temperature for 60 minutes. 11. Wash three times with 200 μl/well PBS-T buffer. Pat plate on paper towel to remove excess liquid. 12. Dilute primary antibody, Phospho-Tyrosine mAb (P-Tyr-100), 1:1000 in PBS-T buffer with 1% BSA. Add 100 μl diluted primary antibody to each well. 13. Incubate, with shaking at room temperature for 60 minutes. 14. Wash as described above in step 11. 15. Dilute Europium labeled anti-mouse IgG 1:500 in PBS-T buffer with 1% BSA. Add 100 μl diluted antibody to each well. 16. Incubate, with shaking at room temperature for 30 minutes. 17. Wash five times with 200 μl/well PBS-T buffer. Pat plate on paper towel to remove excess liquid. 18. Add 100 μl/well DELFIA® Enhancement Solution. 19. Incubate, with shaking at room temperature for 5 minutes. 20. Detect 615 nm fluorescence emission with appropriate Time-Resolved Plate Reader.
Calculate the inhibition rate: IR (%)=100−100*(X−B)/(N−B)
as §7, §8

The structures appear in SMILES notation.

T1 sequence (P35968 20-1356): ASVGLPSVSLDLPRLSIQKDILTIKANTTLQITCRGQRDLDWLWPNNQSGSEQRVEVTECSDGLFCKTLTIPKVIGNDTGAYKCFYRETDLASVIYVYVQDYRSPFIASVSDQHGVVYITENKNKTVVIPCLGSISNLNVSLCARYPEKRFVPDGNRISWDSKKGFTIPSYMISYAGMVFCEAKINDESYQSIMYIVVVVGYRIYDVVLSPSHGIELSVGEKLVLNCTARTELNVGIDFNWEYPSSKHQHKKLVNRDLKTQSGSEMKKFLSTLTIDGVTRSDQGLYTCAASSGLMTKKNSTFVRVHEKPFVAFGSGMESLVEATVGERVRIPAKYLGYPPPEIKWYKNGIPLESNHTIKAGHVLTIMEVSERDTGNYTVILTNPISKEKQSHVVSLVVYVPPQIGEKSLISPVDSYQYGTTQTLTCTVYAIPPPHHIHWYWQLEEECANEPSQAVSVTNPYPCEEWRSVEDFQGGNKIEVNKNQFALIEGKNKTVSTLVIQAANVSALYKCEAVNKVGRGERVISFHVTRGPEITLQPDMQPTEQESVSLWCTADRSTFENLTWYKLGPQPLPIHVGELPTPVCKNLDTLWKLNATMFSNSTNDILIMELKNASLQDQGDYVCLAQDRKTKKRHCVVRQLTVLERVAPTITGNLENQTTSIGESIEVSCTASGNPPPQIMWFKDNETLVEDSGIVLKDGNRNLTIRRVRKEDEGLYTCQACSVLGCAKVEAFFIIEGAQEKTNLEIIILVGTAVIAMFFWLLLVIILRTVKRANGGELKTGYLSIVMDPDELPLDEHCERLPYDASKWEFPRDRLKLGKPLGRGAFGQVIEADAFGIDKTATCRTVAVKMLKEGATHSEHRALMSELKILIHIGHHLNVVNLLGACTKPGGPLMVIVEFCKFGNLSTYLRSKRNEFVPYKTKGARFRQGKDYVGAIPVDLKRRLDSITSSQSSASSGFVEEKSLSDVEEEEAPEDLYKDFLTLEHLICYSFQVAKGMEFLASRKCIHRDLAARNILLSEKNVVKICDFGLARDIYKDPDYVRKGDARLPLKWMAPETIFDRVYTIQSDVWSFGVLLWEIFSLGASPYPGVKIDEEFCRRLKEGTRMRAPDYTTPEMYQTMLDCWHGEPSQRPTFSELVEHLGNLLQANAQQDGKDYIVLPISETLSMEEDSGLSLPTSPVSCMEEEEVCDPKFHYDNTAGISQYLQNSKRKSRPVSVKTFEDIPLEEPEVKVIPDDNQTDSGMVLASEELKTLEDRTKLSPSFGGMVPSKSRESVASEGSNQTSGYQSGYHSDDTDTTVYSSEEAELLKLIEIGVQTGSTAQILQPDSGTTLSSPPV
T2 sequence (P04626 23-1255): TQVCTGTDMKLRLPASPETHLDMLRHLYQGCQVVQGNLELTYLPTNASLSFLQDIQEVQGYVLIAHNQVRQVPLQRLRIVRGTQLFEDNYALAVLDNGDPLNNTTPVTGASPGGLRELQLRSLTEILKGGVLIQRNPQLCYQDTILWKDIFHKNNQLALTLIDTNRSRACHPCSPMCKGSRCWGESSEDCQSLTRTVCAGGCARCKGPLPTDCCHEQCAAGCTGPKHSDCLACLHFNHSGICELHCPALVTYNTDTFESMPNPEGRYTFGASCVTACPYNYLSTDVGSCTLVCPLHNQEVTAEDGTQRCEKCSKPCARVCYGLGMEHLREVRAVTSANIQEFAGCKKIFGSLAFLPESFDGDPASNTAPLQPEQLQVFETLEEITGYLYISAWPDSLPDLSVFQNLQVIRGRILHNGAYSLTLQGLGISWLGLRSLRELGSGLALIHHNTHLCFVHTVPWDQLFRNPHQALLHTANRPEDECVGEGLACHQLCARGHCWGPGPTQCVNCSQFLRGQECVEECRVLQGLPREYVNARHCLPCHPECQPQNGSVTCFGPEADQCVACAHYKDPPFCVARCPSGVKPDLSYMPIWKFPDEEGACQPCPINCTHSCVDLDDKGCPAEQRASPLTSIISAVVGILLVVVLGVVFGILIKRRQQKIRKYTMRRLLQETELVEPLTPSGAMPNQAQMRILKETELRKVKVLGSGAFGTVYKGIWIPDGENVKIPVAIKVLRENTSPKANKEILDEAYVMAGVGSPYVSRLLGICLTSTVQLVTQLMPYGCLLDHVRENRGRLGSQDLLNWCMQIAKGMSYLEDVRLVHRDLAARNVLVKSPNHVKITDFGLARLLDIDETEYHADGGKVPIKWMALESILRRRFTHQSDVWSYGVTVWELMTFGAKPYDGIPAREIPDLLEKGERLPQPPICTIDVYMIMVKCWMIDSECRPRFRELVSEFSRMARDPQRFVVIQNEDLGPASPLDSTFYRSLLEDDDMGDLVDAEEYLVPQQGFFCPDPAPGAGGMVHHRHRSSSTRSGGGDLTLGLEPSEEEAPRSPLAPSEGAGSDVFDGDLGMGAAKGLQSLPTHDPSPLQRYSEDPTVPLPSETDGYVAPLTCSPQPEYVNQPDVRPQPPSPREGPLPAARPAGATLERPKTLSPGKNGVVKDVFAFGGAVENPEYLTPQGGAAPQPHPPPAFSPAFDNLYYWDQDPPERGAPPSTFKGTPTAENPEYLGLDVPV

Turning to `CCN(CC)CCN1CCc2[nH]c(/C=C3\C(=O)Nc4ncnc(Nc5ccc(F)c(Cl)c5)c43)c(C)c2C1=O` [Example 12, 4-(3-Chlor O-4-fluoro-phenylamino)-5-[5-(2-diethylamino-ethyl)-3-methyl-4-oxo-4,5,6,7-tetrahydro-1H-pyrrolo[3,2-c]pyridine-2-ylmethylene]-5,7-dihydro-pyrrolo[2,3-d]pyrimidin-6-one], the IC50 in test [1] is 1.89 µM; at HER-2/ErbB2 kinase, 0.09 µM.
With `Cc1c(/C=C2\C(=O)Nc3ccc(Cl)cc32)[nH]c2c1C(=O)N(CCN1CCOCC1)CC2` [Example 16, 2-(5-Chloro-2-oxo-1,2-dihydro-indol-3-ylidenemethyl)-3-methyl-5-(2-morpholin-4-yl-ethyl)-1,5,6,7-tetrahydro-pyrrolo[3,2-c]pyridin-4-one], in test [1], the IC50 is 0.044 µM.
As to `Cc1c(/C=C2\C(=O)Nc3ncnc(Nc4ccc(F)c(Cl)c4)c32)[nH]c2c1C(=O)N(CCN1CCOCC1)CC2` [Example 24, 4-(3-Chloro-4-fluoro-phenylamino)-5-[3-methyl-5-(2-morpholin-4-yl-ethyl)-4-oxo-4,5,6,7-tetrahydro-1H-pyrrolo[3,2-c]pyridine-2-ylmethylenene]-5,7-dihydro-pyrrolo[2,3-d]pyrimidin-6-one], the IC50 was 0.68 µM in test [1] and 0.83 µM against HER-2/ErbB2 kinase.
For `CCN(CC)CCN1CCc2[nH]c(/C=C3\C(=O)Nc4cccc(Br)c43)c(C)c2C1=O` [Example 30, 2-(4-Bromo-2-oxo-1,2-dihydro-indol-3-ylidenemethyl)-5-(2-diethylamino-ethyl)-3-methyl-1,5,6,7-tetrahydro-pyrrolo[3,2-c]pyridin-4-one], in test [1], the IC50 was 0.094 µM.
`CCN(CC)CCN1CCc2[nH]c(/C=C3\C(=O)Nc4cccc(C5CCNCC5)c43)c(C)c2C1=O` [Example 31, 5-(2-Diethylamino-ethyl)-3-methyl-2-(2-oxo-4-piperidin-4-yl-1,2-dihydro-indol-3-ylidenemethyl)-1,5,6,7-tetrahydro-pyrrolo[3,2-c]pyridin-4-one]: the IC50 in test [1] is 0.035 µM; at HER-2/ErbB2 kinase it was 0.98 µM.
Turning to `CCN(CC)CCN1CCc2[nH]c(/C=C3\C(=O)Nc4cccc(-c5ccc(Cl)cc5F)c43)c(C)c2C1=O` [Example 34, 2-[4-(4-Chloro-2-fluoro-phenyl)-2-oxo-1,2-dihydro-indol-3-ylidenemethyl]-5-(2-diethylamino-ethyl)-3-methyl-1,5,6,7-tetrahydro-pyrrolo[3,2-c]pyridin-4-one], the IC50 in test [1] stood at 0.011 µM.
On the same count and under the same terms, to `CCN(CC)CCN1CCc2[nH]c(/C=C3\C(=O)Nc4cccc(-c5cccc(Cl)c5F)c43)c(C)c2C1=O` [Example 36, 2-[4-(3-Chloro-2-fluoro-phenyl)-2-oxo-1,2-dihydro-indol-3-ylidenemethyl]-5-(2-diethylamino-ethyl)-3-methyl-1,5,6,7-tetrahydro-pyrrolo[3,2-c]pyridin-4-one] belongs 0.01 µM.
The same measure, in the same setting: to `CCN(CC)CCN1CCc2[nH]c(/C=C3\C(=O)Nc4cccc(CCO)c43)c(C)c2C1=O` [Example 37, 5-(2-Diethylamino-ethyl)-2-[4-(2-hydroxy-ethyl)-2-oxo-1,2-dihydro-indol-3-ylidenemethyl]-3-methyl-1,5,6,7-tetrahydro-pyrrolo[3,2-c]pyridin-4-one] belongs 0.07 µM.
Take `CCN(CC)CCN1CCc2[nH]c(/C=C3\C(=O)Nc4cccc(-c5cccc(F)c5F)c43)c(C)c2C1=O` [Example 39, 5-(2-diethylamino-ethyl)-2-[4-(2,3-difluoro-phenyl)-2-oxo-1,2-dihydro-indol-3-ylidenemethyl]-3-methyl-1,5,6,7-tetrahydro-pyrrolo[3,2-c]pyridin-4-one]: the IC50 in test [1] was 0.0071 µM; against HER-2/ErbB2 kinase, 0.27 µM.
Take `Cc1c(/C=C2\C(=O)Nc3ccc(Br)cc32)[nH]c2c1C(=O)N(CCN1CCCC1)CC2` [Example 40, 2-(5-Bromo-2-oxo-1,2-dihydro-indol-3-ylidenemethyl)-3-methyl-5-(2-pyrrolidin-1-yl-ethyl)-1,5,6,7-tetrahydro-pyrrolo[3,2-c]pyridin-4-one]: the IC50 in test [1] is 0.047 µM.
At HER-2/ErbB2 kinase, `Cc1c(/C=C2\C(=O)Nc3cccc(CCO)c32)[nH]c2c1C(=O)N(CCN1CCOCC1)CC2` [Example 42, 2-[4-(2-Hydroxy-ethyl)-2-oxo-1,2-dihydro-indol-3-ylidenemethyl]-3-methyl-5-(2-morpholin-4-yl-ethyl)-1,5,6,7-tetrahydro-pyrrolo[3,2-c]pyridin-4-one] returned an IC50 of 41.1 µM.
As for `Cc1c(/C=C2\C(=O)Nc3cccc(C4CCNCC4)c32)[nH]c2c1C(=O)N(CCN1CCOCC1)CC2` [Example 52, 3-Methyl-5-(2-morpholin-4-yl-ethyl)-2-(2-oxo-4-piperidin-4-yl-1,2-dihydro-indol-3-ylidenemethyl)-1,5,6,7-tetrahydro-pyrrolo[3,2-c]pyridin-4-one], the IC50 in test [1] came out at 1.27 µM; against HER-2/ErbB2 kinase, 8.32 µM.
In turn, `Cc1c(/C=C2\C(=O)Nc3cccc(-c4cccc(F)c4F)c32)[nH]c2c1C(=O)N(CCN1CCCC1)CC2` [Example 59, 2-[4-(2,3-Difluoro-phenyl)-2-oxo-1,2-dihydro-indol-3-ylidenemethyl]-3-methyl-5-(2-pyrrolidin-1-yl-ethyl)-1,5,6,7-tetrahydro-pyrrolo[3,2-c]pyridin-4-one] showed an IC50 on HER-2/ErbB2 kinase of 0.72 µM.

Values taken from patent publication US8697692B2, “Pyrrolo [3,2-c] pyridine-4-one 2-indolinone protein kinase inhibitors” (Shanghai Hengrui Pharmaceutical Co., Ltd., priority 2006, dated 2014).
